Experimental data published in PubChem BioAssay AID256 (DTP/NCI, 2004).
Toxic doses and inconclusive results are not listed. Rule for the calls: active = survival T/C of 150% or more; inactive = T/C below 125% in these data.

System: CD2F1 mice, L1210 leukemia ip, survival T/C
Assay: NCI In Vivo Anticancer Drug Screen. Data for tumor model L1210 Leukemia (intraperitoneal) in CD2F1 (CDF1) mice
Conditions: endpoint: mean survival time, higher = longer survival
How it was run: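 Ratio T/C, where T is the treated-group value and C the vehicle-dosed control value, from mice implanted with a transplantable tumor.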

[1] = dose: 100.0 mg/kg/injection, schedule: Q04DX003 (ip), vehicle: saline with Tween-80
[2] = dose: 5.0 mg/kg/injection, schedule: Q01DX009 (ip), vehicle: saline with Tween-80
[3] = dose: 10.0 mg/kg/injection, schedule: Q01DX009 (ip), vehicle: saline with Tween-80
[4] = dose: 20.0 mg/kg/injection, schedule: Q01DX009 (ip), vehicle: saline with Tween-80
[5] = dose: 100.0 mg/kg/injection, schedule: Q04DX002 (ip), vehicle: saline with Tween-80
[6] = dose: 200.0 mg/kg/injection, schedule: Q04DX002 (ip), vehicle: saline with Tween-80
[7] = dose: 12.5 mg/kg/injection, schedule: Q01DX009 (ip), vehicle: saline with Tween-80
[8] = dose: 25.0 mg/kg/injection, schedule: Q01DX009 (ip), vehicle: saline with Tween-80
[9] = dose: 50.0 mg/kg/injection, schedule: Q01DX009 (ip), vehicle: saline with Tween-80
[10] = dose: 100.0 mg/kg/injection, schedule: Q01DX009 (ip), vehicle: saline with Tween-80
[11] = dose: 200.0 mg/kg/injection, schedule: Q01DX009 (ip), vehicle: saline with Tween-80
[12] = dose: 400.0 mg/kg/injection, schedule: Q04DX002 (ip), vehicle: saline with Tween-80
[13] = dose: 400.0 mg/kg/injection, schedule: Q01DX009 (ip), vehicle: saline with Tween-80
[14] = dose: 50.0 mg/kg/injection, schedule: Q04DX003 (ip), vehicle: saline with Tween-80
[15] = dose: 200.0 mg/kg/injection, schedule: Q04DX003 (ip), vehicle: saline with Tween-80
[16] = dose: 400.0 mg/kg/injection, schedule: Q04DX003 (ip), vehicle: saline with Tween-80

Measured: T/C

Nc1cc(=O)[nH]c(=S)[nH]1.[Pd]
inactive: dose: 3.13 mg/kg/injection, schedule: Q04DX003 (ip), vehicle: distilled water + Tween-80 100 % of control | dose: 6.25 mg/kg/injection, schedule: Q04DX003 (ip), vehicle: distilled water + Tween-80 100 % of control | dose: 12.5 mg/kg/injection, schedule: Q04DX003 (ip), vehicle: distilled water + Tween-80 103 % of control | dose: 25.0 mg/kg/injection, schedule: Q04DX003 (ip), vehicle: distilled water + Tween-80 97 % of control | dose: 50.0 mg/kg/injection, schedule: Q04DX003 (ip), vehicle: distilled water + Tween-80 97 % of control | dose: 100.0 mg/kg/injection, schedule: Q04DX003 (ip), vehicle: distilled water + Tween-80 96 % of control | dose: 200.0 mg/kg/injection, schedule: Q04DX003 (ip), vehicle: distilled water + Tween-80 91 % of control

O=S(=O)(CS(=O)(=O)Nc1ccccc1)Nc1ccccc1
inactive: [1] 109 % of control

CCCCCCCCCCCCNC(=O)C[n+]1cccc(C(=O)N(C)C)c1
inactive: [2] 114 % of control | [3] 97 % of control | [4] 98 % of control

CN(C)CCC(=O)c1cccc(O)c1
inactive: [5] 104 % of control | [6] 101 % of control

ClC1CCC[N-]C1.ClC1CCC[N-]C1.O=C(O)CC(=O)O.[Pt+2] (configuration not stated)
inactive: [7] 102 % of control | [8] 100 % of control | [9] 104 % of control | [10] 104 % of control | [11] 94 % of control

CCOC(=O)Cc1cnc(SC)[nH]c1=O
inactive: dose: 50.0 mg/kg/injection, schedule: Q04DX003 (ip), vehicle: Klucel (hydroxypropylcellulose) (HPC) 111 % of control | dose: 100.0 mg/kg/injection, schedule: Q04DX003 (ip), vehicle: Klucel (hydroxypropylcellulose) (HPC) 106 % of control | dose: 200.0 mg/kg/injection, schedule: Q04DX003 (ip), vehicle: Klucel (hydroxypropylcellulose) (HPC) 106 % of control | dose: 600.0 mg/kg/injection, schedule: Q04DX003 (ip), vehicle: Klucel (hydroxypropylcellulose) (HPC) 100 % of control

COC(=O)N1c2ccccc2C23CCN4CCCC5(CCC12C(C(=O)O)C5)C43 (configuration not stated)
inactive: dose: 75.0 mg/kg/injection, schedule: Q01DX001 (ip), vehicle: other 93 % of control | dose: 150.0 mg/kg/injection, schedule: Q01DX001 (ip), vehicle: other 101 % of control | dose: 300.0 mg/kg/injection, schedule: Q01DX001 (ip), vehicle: other 107 % of control

CCOC(=O)C(c1ccccc1)P(=O)(OCC)OCC (configuration not stated)
inactive: [5] 111 % of control | [6] 100 % of control | [12] 100 % of control

Cc1cccc[n+]1[O-]
inactive: dose: 100.0 mg/kg/injection, schedule: Q04DX003 (ip), vehicle: saline 101 % of control | dose: 200.0 mg/kg/injection, schedule: Q04DX003 (ip), vehicle: saline 98 % of control | dose: 400.0 mg/kg/injection, schedule: Q04DX003 (ip), vehicle: saline 88 % of control

C/C(=C\Cl)CO
inactive: dose: 50.0 mg/kg/injection, schedule: Q01DX009 (ip), vehicle: acetone 100 % of control | dose: 100.0 mg/kg/injection, schedule: Q01DX009 (ip), vehicle: acetone 106 % of control

NCCCNC(=O)OCc1ccccc1
inactive: dose: 100.0 mg/kg/injection, schedule: Q01DX001 (ip), vehicle: saline 105 % of control | dose: 200.0 mg/kg/injection, schedule: Q01DX001 (ip), vehicle: saline 102 % of control | dose: 400.0 mg/kg/injection, schedule: Q01DX001 (ip), vehicle: saline 102 % of control

C[N+](C)(C)CSSC[N+](C)(C)C
inactive: dose: 12.5 mg/kg/injection, schedule: Q04DX002 (ip), vehicle: saline 96 % of control | dose: 25.0 mg/kg/injection, schedule: Q04DX002 (ip), vehicle: saline 96 % of control | dose: 50.0 mg/kg/injection, schedule: Q04DX002 (ip), vehicle: saline 103 % of control

CC(C)(C)OC(=O)NN=C1CCC(C(C)(C)C)CC1 (configuration not stated)
inactive: dose: 100.0 mg/kg/injection, schedule: Q01DX009 (ip), vehicle: saline 93 % of control | dose: 200.0 mg/kg/injection, schedule: Q01DX009 (ip), vehicle: saline 91 % of control | dose: 400.0 mg/kg/injection, schedule: Q01DX009 (ip), vehicle: saline 98 % of control

Cn1c(C(N)=O)cc(=O)n1-c1ccccc1
inactive: dose: 100.0 mg/kg/injection, schedule: Q01DX001 (ip), vehicle: saline sonified 102 % of control | [10] 107 % of control | dose: 200.0 mg/kg/injection, schedule: Q01DX001 (ip), vehicle: saline sonified 96 % of control | [11] 103 % of control | dose: 400.0 mg/kg/injection, schedule: Q01DX001 (ip), vehicle: saline sonified 98 % of control | [13] 105 % of control

CC(=O)Nc1ncc([N+](=O)[O-])s1
inactive: [14] 100 % of control | [1] 105 % of control | [15] 100 % of control

CC1=CC(=O)C(CCC(=O)O)C(C)(C)C1 (configuration not stated)
inactive: [5] 91 % of control | [6] 94 % of control | [12] 94 % of control

O=C1/C(=C/c2ccc([N+](=O)[O-])cc2)CCc2ccccc21
inactive: dose: 12.5 mg/kg/injection, schedule: Q01DX009 (ip), vehicle: Klucel (hydroxypropylcellulose) (HPC) 97 % of control | dose: 25.0 mg/kg/injection, schedule: Q01DX009 (ip), vehicle: Klucel (hydroxypropylcellulose) (HPC) 96 % of control | dose: 50.0 mg/kg/injection, schedule: Q01DX009 (ip), vehicle: Klucel (hydroxypropylcellulose) (HPC) 94 % of control | dose: 100.0 mg/kg/injection, schedule: Q01DX009 (ip), vehicle: Klucel (hydroxypropylcellulose) (HPC) 92 % of control | dose: 200.0 mg/kg/injection, schedule: Q01DX009 (ip), vehicle: Klucel (hydroxypropylcellulose) (HPC) 91 % of control

C=CCc1cccc(OC)c1OCCN(CC)CC
inactive: [2] 102 % of control | dose: 5.0 mg/kg/injection, schedule: Q04DX003 (ip), vehicle: saline with Tween-80 94 % of control | [3] 96 % of control | dose: 10.0 mg/kg/injection, schedule: Q04DX003 (ip), vehicle: saline with Tween-80 96 % of control | [4] 91 % of control | dose: 20.0 mg/kg/injection, schedule: Q04DX003 (ip), vehicle: saline with Tween-80 96 % of control

Clc1ccc2c(NCCN3CCCCCC3)nc(C(Cl)(Cl)Cl)nc2c1
inactive: [9] 94 % of control | [14] 103 % of control | [10] 98 % of control | [1] 94 % of control | [11] 98 % of control | [15] 92 % of control

O=S(=O)(F)c1ccc(N=C=S)cc1
inactive: [7] 107 % of control | [8] 97 % of control | [1] 94 % of control | [15] 97 % of control | [16] 100 % of control

Cn1cnc(C(=N)[Se])c1N
inactive: dose: 0.78 mg/kg/injection, schedule: Q01DX005 (ip), vehicle: water 90 % of control | dose: 1.56 mg/kg/injection, schedule: Q01DX005 (ip), vehicle: water 102 % of control | dose: 3.13 mg/kg/injection, schedule: Q01DX005 (ip), vehicle: water 100 % of control | dose: 6.25 mg/kg/injection, schedule: Q01DX005 (ip), vehicle: water 90 % of control | dose: 12.5 mg/kg/injection, schedule: Q01DX005 (ip), vehicle: water 100 % of control

c1ccc(CN2CN(Cc3ccccc3)CN(Cc3ccccc3)C2)cc1
inactive: [10] 100 % of control | [1] 89 % of control | [11] 100 % of control | [15] 89 % of control | [13] 97 % of control | [16] 98 % of control
